Experimental findings from US20230130144A1, “PHARMACEUTICAL COMBINATION AND USE THEREOF” (NATURAL MEDICINE INSTITUTE OF ZHEJIANG YANGSHENGTANG CO., …, priority 2020, published 2023) are described below.

Where “and” joins values, the source holds several entries; their conditions need not be identical. Identical values can stand only once. Like-named read-outs stand apart in the source and are kept apart here.

Common to all, as to type: cell-based
Data set [1] has as its system 143B human osteosarcoma cells. Nature of the data set: Cell count (Trypan Blue) viability, drug combination administration, 143B cells. The settings on record: 24 h; for viability at 20 µM / viability at 50 µM / viability at 10 µM: Homo sapiens, read-out: cell viability. As for the experimental part: (§1) 10 μL was taken for counting.
(§2) (5) After 24 h of dosing, the medium was discarded. […] The cells were digested for 5 min.

Data set [2] deals with HOS human osteosarcoma cells. Description: Cell count (Trypan Blue) viability, drug combination administration, HOS cells. The settings on record: 24 h, read-out: cell viability. The protocol: HEK293 cells, HOS human osteosarcoma cells and 143B human osteosarcoma cells were subcultured in an incubator at 37° C., 5% CO2 using a RPMI-1640 medium containing 10% fetal bovine serum (FBS).
as §1
(3) After counting, the cells were diluted to 1×10^5 cells/ml.
as §2

The subject of a further data set is DB lymphoma cells. Description: Cell viability of lymphoma cells by the method of Example 1. The settings on record: Homo sapiens. As for the experimental part: (§3) (6) After digestion, equivalent amounts of PBS were added into each well and mixed uniformly. Then, 10 μL/well of Trypan Blue solution was added and mixed uniformly. 10 μL of the well-mixed solution was taken and counted. In accordance with “Cell viability=Cell Count of Test Group/Cell Count of Control Group×100%”, the cell viability of various groups was calculated.
For example, as for the DB lymphoma cells, the control group involves adding the solvent DMSO alone, the Vc group involves adding 2 mM of ascorbic acid, the low-dose Nic group involves adding 1 μM of Niclosamide, the low-dose Nic+Vc group involves adding 1 μM of Niclosamide and 2 mM of ascorbic acid, the high-dose Nic group involves adding 2 μM of Niclosamide, and the high-dose Nic+Vc group involves adding 2 μM of Niclosamide and 2 mM of ascorbic acid.

A further data set has as its system MC38 colon cancer cells. Nature of the data set: Cell viability of colon cancer cells by the method of Example 1. As to conditions: Mus musculus. As for the experimental part:
as §3
For example, as for MC38 colon cancer cells, the control group involves adding the solvent DMSO alone, the Nic group involves adding 1 μM of Niclosamide, the Vc group involves adding 0.5 mM of ascorbic acid, the Nic+Vc group involves adding 1 μM of Niclosamide and 0.5 mM of ascorbic acid.

Usually viability stands for a read-out of living cells in per cent, often relative to untreated cells. In the case of `Cn1c(=O)c2c(ncn2CC(=O)Nc2ccc(-c3ccccc3)nn2)n(C)c1=O` [ETC-159], the viability at 20 µM in data set [1] (143B) turned out to be 60%; in data set [2] (HOS), 67%.
As to `Cc1cc(-c2ncc(CC(=O)Nc3ccc(-c4cnccn4)cn3)cc2C)ccn1` [LGK974], the viability at 20 µM in data set [1] (143B) worked out at 64%; in data set [2] (HOS), 67%.
Taken in the same sequence, the figures for `O=C(O)CC[C@H]1CC[C@@](c2cc(F)ccc2F)(S(=O)(=O)c2ccc(Cl)cc2)CC1` [MK0752] were 62% and 67%.
As for `O=C(Nc1ccc([N+](=O)[O-])cc1Cl)c1cc(Cl)ccc1O` [Niclosamide], the viability at 50 µM in data set [1] (143B) came out at 59%; in data set [2] (HOS), 56%. The viability at 1 µM with DB lymphoma cells (1 μM Niclosamide alone (low-dose)) was 57%; in the data set on MC38 colon cancer cells (MC-38, 1 μM Niclosamide alone) it was 82%. In the data set with DB lymphoma cells (2 μM Niclosamide alone (high-dose)), the viability at 2 µM came to 52%.
For `CC(C)(C(=O)NCC(F)(F)C(F)(F)F)C(=O)N[C@@H]1C(=O)Nc2ccccc2-c2ccccc21` [RO4929097], the viability at 10 µM was 58% in data set [1] (143B) and 56% in data set [2] (HOS).
As for `Cc1c(C(=O)Nc2ccc(N3C[C@@H](C)O[C@@H](C)C3)nc2)cccc1-c1ccc(OC(F)(F)F)cc1` [Sonidegib], the viability at 10 µM in data set [1] (143B) came out at 74%; in data set [2] (HOS), 89%.
Consider `CC1=C(CC(=O)O)c2cc(F)ccc2/C1=C\c1ccc([S+](C)[O-])cc1` (centres unmarked) [Sulindac], for which the viability at 50 µM in data set [2] (HOS) stood at 92%.
For the compound `CS(=O)(=O)c1ccc(C(=O)Nc2ccc(Cl)c(-c3ccccn3)c2)c(Cl)c1` [Vismodegib], the viability at 50 µM worked out at 60% in data set [1] (143B cells, single drug 50 μM) and 53% in data set [2] (HOS cells, single drug 50 μM).
For the compound `O=C1O[C@H]([C@@H](O)CO)C(O)=C1O` [ascorbic acid], in the data set on DB lymphoma cells (2 mM ascorbic acid alone), the viability at 2000 µM turned out to be 76%. The viability at 500 µM with MC38 colon cancer cells (MC-38, 0.5 mM ascorbic acid alone) was found to be 105%.
Take `COc1ccc2cc3[n+](cc2c1OC)CCc1cc2c(cc1-3)OCO2` [berberine]: the results for the viability at 20 µM in data set [1] (143B) and in data set [2] (HOS) were 94% and 82%, respectively.
In general, cell viability refers to a read-out of living cells in per cent, often relative to untreated cells. For the compound `O=C1O[C@H]([C@@H](O)CO)C([O-])=C1O.[Na+]` [sodium ascorbate], the cell viability in data set [1] (143B cells, 0.5 mM sodium ascorbate alone) is 106% and 90% and 83% and 77% and 80% and 81% and 82%.
